The subject of assay [1] is HIV. The assay can be described thus: Reduction of HIV cytopathic effect, CEM-6 (CEMV test, six days). The assay is classed as cell-based. The following applies: CEM cells; for EC50: free HIV, read-out: Activity of Anti-HIV Compounds (EC50), CEM-6; for Activity class of Anti-HIV Compounds, CEM-6: inhibition of viral cytopathic effect, 8640 min. As to the method:
(§1) The compounds of Examples were tested for anti-AIDS activity by subjecting them to standard National Cancer Institute ("NCI") in vitro screening procedures. In carrying out each test, two blanks were run. In the first blank, HIV and a culture of a standard human cell line were incubated together to measure the infectivity of the virus. The viability of the cells was measured after holding for six or seven days. In an "effective" test, most cells were infected before the holding period was complete.
(§2) Finally, the protective effects of the test compounds were measured. Each cell culture and test compound were incubated with the virus and the viability of the cells was measured as a function of compound concentration after holding for six or seven days. If the compound is active in protecting the cells against the virus, there is typically low cell viability until an effective concentration of the test compound is reached. At this point, cell viability increases steadily toward 100% unless the toxic effect of the compound (as measured in the second blank) takes effect. The concentration of the test compound that results in 50% "control," i.e., a 50% reduction of the viral cytopathic effect, is defined as the EC 50. The therapeutic index TI50 is calculated as IC50/EC50.
(§3) Values of test compound concentrations required for between 20 and 50% reduction of the viral cytopathic effect can also be determined. Such compounds are classified as moderately active.
(§4) The compounds were tested to determine their reduction of HIV cytopathic effect on the human cell lines CEM and MT2. Tests were done by innoculating these cell lines either with free HIV (V) or with a virus Previously cultured with host cells (C). Thus, in Table III the designation CEMV means CEM line cells innoculated with free virus and MT2C means MT2 cells innoculated with cultured viral infected MT2 cells. In some cases the compound was also tested on a cell line together with a sub-effective amount of the known HIV viricide AZT. This is done to test possible synergistic effects. Such a test on the CEM line is denoted CEMZ.
(§5) 1) T4 lymphocytes (CEM cell line) are exposed to HIV at a virus to cell ratio of approximately 0.05 and plated along with non-infected control cells in 96-well microtiter plates.
(§6) 2) Each candidate agent is dissolved in dimethyl sulfoxide (unless otherwise indicated), then diluted 1:200 in cell culture medium. Further dilutions (five-fold) are prepared before adding to an equal volume of medium containing either infected or noninfected cells.
(§7) 3) Cultures are incubated at 37° C. in a 5% carbon dioxide atmosphere for seven days (if six days the CEMV test is identified as CEM-6).
(§8) 4) The tetrazolium salt, XTT, is added to all wells, and cultures are incubated to allow formazan color development by viable cells.
(§9) 5) Individual wells are analyzed spectrophotometrically to quantity formazan production, and in addition are viewed microscopically for detection of viable cells and confirmation of protective activity.
(§10) 6) Drug-treated virus-infected cells are compared with drug-treated non-infected cells and with other appropriate controls (untreated infected and untreated non-infected cells, drug-containing wells without cells, etc.) on the same plate.
(Protection from cytopathic effect is a common read-out in antiviral testing.)

Assay [2] concerns HIV. The assay can be described thus: microbe, parasite or virus in culture. It counts as cell-based. Conditions: CEM cells; for EC50: free HIV, read-out: Activity of Anti-HIV Compounds (EC50), CEMV. The protocol:
as §1
In the second blank, the cell line culture and the compound being tested (but not virus) were incubated together to measure the toxicity of the drug to the cellline. The viability of the cells was measured as a function of concentration of the compound, after holding for seven days. Typically, the cells survive at low compound concentrations, but at some higher concentration, toxicity of the compound is manifested and the cells die. The concentration of the test compound that results in 50% inhibition of cell growth is defined as the IC50.
as §2, §3, §4, §5, §6, §7, §8, §9, §10
7) A determination of activity is made. […]

Where [3] appears, read: Human immunodeficiency virus 1, CCRF-CEM, 144 h.
[4] abbreviates: Human immunodeficiency virus 1, CCRF-CEM.

32 molecules from patent US5268389A, “Thiocarboxylate ester compounds compositions containing the same” (priority 1990, dated 1993) can be followed below.

In general, EC50 refers to the concentration giving half of the maximal effect.

Several values for one entry are separate records, joined by “and”; a condition that tells them apart may be missing. Equal entries are not always repeated.

For `CC1=C(C(=O)Nc2ccc(C)c(C(=O)OC(C)C)c2)SCCO1` [Compound 73], the half-maximal effective concentration (EC50) worked out at 0.58 µM in assay [1] and 0.41 µM in assay [1] (setting [3]).
For `Cc1cc(C)c(C(=O)Nc2ccc(Cl)c(C(=O)OC(C)C)c2)s1` [Compound 108], the “Activity class of Anti-HIV Compounds, CEM-6” value (from here on “Activity class … CEM-6”) in assay [1] was “MA (moderate activity (MA), that is, inhibition between approximately 20 and 50%)”.
Consider `CC(C)OC(=O)c1cc(NC(=O)c2ccsc2)ccc1Cl` [Compound 109], for which the “Activity class … CEM-6” value in assay [1] is “MA (moderate activity (MA), that is, inhibition between approximately 20 and 50%)”.
Regarding `CCCC1=C(C(=O)Nc2ccc(Cl)c(C(=O)OCC)c2)SCCO1` [Compound 70, Ethyl 2-chloro-5-[[(5,6-dihydro-2-propyl-1,4-oxathiin-3-yl)carbonyl]amino]benzoate], the EC50 was 0.21 µM and 0.23 µM in assay [1]; 0.17 µM in assay [1] (setting [3]).
For the molecule `CC(C)OC(=O)c1cc(NC(=S)N(C)C)ccc1Cl` [Compound 48], the “Activity class … CEM-6” value in assay [1] is “MA (moderate activity (MA), that is, inhibition between approximately 20 and 50%)”.
The same measure, in the same setting: with `CC(C)OC(=O)c1cc(NC(=O)c2ccccc2Cl)ccc1Cl` [Compound 90, 1-Methylethyl 2-chloro-5-[(2-chlorobenzoyl)amino]benzoate] the entry was “MA (moderate activity (MA), that is, inhibition between approximately 20 and 50%)”; with `CCCCOC(=O)c1cccc(NC(=O)C2=C(C)OCCS2)c1` [Compound 76], “MA (moderate activity (MA), that is, inhibition between approximately 20 and 50%)”.
In the case of `Cc1nc(C(=O)Nc2ccc(Cl)c(C(=O)OC(C)C)c2)c(-c2ccccc2)o1` [Compound 103], the “Activity class … CEM-6” value in assay [1] is “MA (moderate activity (MA), that is, inhibition between approximately 20 and 50%)”.
Consider `Cc1coc(C)c1C(=O)Nc1ccc(Cl)c(C(=O)OC(C)C)c1` [Compound 80, 1-Methylethyl 2-chloro-5-[[(2,4-dimethyl-3-furanyl)carbonyl]amino]benzoate], for which the concentration giving a half-maximal response (EC50) in assay [1] was 2.3 µM.
“Ethyl 5-[(2-aminobenzoyl)amino]-2-chlorobenzoate [Compound 88]”: the 50% effective concentration (EC50) in assay [1] is 5.7 µM and 3.1 µM.
As to `CCCC1=C(C(=O)Nc2ccc(Cl)c(C(=O)OC)c2)SCCO1` [Compound 71, Methyl 2-chloro-5-[[(5,6-dihydro-2-propyl-1,4-oxathiin-3-yl)-carbonyl]amino]benzoate], the EC50 in assay [1] is 1.83 µM and 1.62 µM; in assay [1] (setting [3]), 0.99 µM.
For `Cc1ccsc1C(=O)Nc1ccc(Cl)c(C(=O)OC(C)C)c1` [Compound 106], in assay [1], the concentration giving a half-maximal response (EC50) was 2.2 µM.
As to `CCOC(=O)c1cc(NC(=O)c2ccccc2OC)ccc1Cl` [Compound 86, Ethyl 2-chloro-5-[(2-methoxybenzoyl)amino]benzoate], the EC50 in assay [1] is 1.36 µM; in assay [1] (setting [3]) it was 1.74 µM.
For the molecule `CCOC(=O)c1ccc(C)c(NC(=O)C2=C(C)OCCS2)c1` [Compound 14, Ethyl 3-[[(5,6-dihydro-2-methyl-1,4-oxathiin-3-yl)carbonyl]amino]-4-methylbenzoate], the EC50 in assay [2] came to 5.2 µM; in assay [2] (setting [4]) it was 7.6 µM.
For `CC(C)OC(=O)c1cc(NC(=O)c2c(Br)c(Br)c(Br)c(Br)c2C(=O)O)c(F)cc1Cl` [Compound 20, 2,3,4,5-Tetrabromo-6-[[[4-chloro-2-fluoro-5-[(1-methylethoxy)carbonyl]phenyl]amino]carbonyl]benzoic acid], the EC50 in assay [2] was 58.7 µM and 69.4 µM and 54.5 µM; in assay [2] (setting [4]), 69.5 µM.
`CCOC(=O)c1cc(NC(=O)c2ccccc2)ccc1Cl` [Compound 87, Ethyl 5-(benzoylamino)-2-chlorobenzoate]: in assay [1], the “Activity class … CEM-6” value is “MA (moderate activity (MA), that is, inhibition between approximately 20 and 50%)”.
Consider `CC1=C(C(=O)Nc2cccc(C#N)c2)SCCO1` [Compound 9, N-(3-Cyanophenyl)-5,6-dihydro-2-methyl-1,4-oxathiin-3-carboxamide], for which the “Activity class of Anti-HIV Compounds, CEMV” value in assay [2] (inhibition of viral cytopathic effect, free virus) is “MA (moderate activity (MA), that is, inhibition between approximately 20 and 50%)”.
Consider `CCOC(=O)c1cc(NC(=O)C2=C(C)OCCS2)ccc1Cl` [Compound 4, Ethyl 2-chloro-5-[[(5,6-dihydro-2-methyl-1,4-oxathiin-3-yl)carbonyl]amino]benzoate], for which the EC50 in assay [2] was 0.3 µM and 0.2 µM; in assay [2] (setting [4]), 0.4 µM.
As for `Cc1cc(C(=O)Nc2ccc(Cl)c(C(=O)OC(C)C)c2)c(C)o1` [Compound 81, 1-Methylethyl 2-chloro-5-[[(2,5-dimethyl-3-furanyl)carbonyl]amino]benzoate], the concentration giving a half-maximal response (EC50) in assay [1] (setting [3]) worked out at 0.42 µM.
For the molecule `COCCOC(=O)c1cc(NC(=O)C2=C(C)OCCS2)ccc1Cl` [Compound 69], in assay [1] (setting [3]), the EC50 was determined as 0.34 µM.
As to `Cc1nc(-c2ccccc2)c(C(=O)Nc2ccc(Cl)c(C(=O)OC(C)C)c2)o1` [Compound 105], the “Activity class … CEM-6” value in assay [1] was “MA (moderate activity (MA), that is, inhibition between approximately 20 and 50%)”.
With `CCCOC(=O)c1ccc(C)c(NC(=O)C2=C(C)OCCS2)c1` [Compound 75, Propyl 3-[[(5,6-dihydro-2-methyl-1,4-oxathiin-3-yl)carbonyl]amino]-4-methylbenzoate], the half-maximal effective concentration (EC50) amounted to 0.908 µM in assay [1] and 1.06 µM in assay [1] (setting [3]).
As to `CC(C)=CC(=O)Nc1ccc(Cl)c(C(=O)OC(C)C)c1` [Compound 91, 1-Methylethyl 2-chloro-5-[(3-methyl-1-oxo-2-butenyl)amino]-benzoate], the “Activity class … CEM-6” value in assay [1] is “MA (moderate activity (MA), that is, inhibition between approximately 20 and 50%)”.
For the molecule `Cc1occc1C(=O)Nc1ccc(Cl)c(C(=O)OC(C)C)c1` [Compound 79, 1-Methylethyl 2-chloro-5-[[(2-methyl-3-furanyl)carbonyl]amino]benzoate], the EC50 in assay [1] was found to be 3.3 µM.
In the case of `CC(C)OC(=O)c1cc(NC(=S)OCC2CC2)ccc1Cl` [Compound 46], in assay [1], the EC50 turned out to be 0.053 µM.
In the case of `CCCCOC(=O)c1cc(NC(=O)C2=C(C)OCCS2)ccc1Cl` [Compound 6, Butyl 2-chloro-5-[[(5,6-dihydro-2-methyl-1,4-oxathiin-3-yl)carbonyl]amino]benzoate], in assay [2] (setting [4]), the EC50 is 0.1 µM.
With `CCCOC(=O)c1cc(NC(=O)C2=C(C)OCCS2)ccc1Cl` [Compound 5, Propyl 2-chloro-5-[[(5,6-dihydro-2-methyl-1,4-oxathiin-3-yl)carbonyl]amino]benzoate], the EC50 amounted to 0.06 µM in assay [2] and 0.07 µM in assay [2] (setting [4]).
Take `CC(C)OC(=O)c1cc(NC(=S)OC2CCCCC2)ccc1Cl` [Compound 44]: the results for the concentration for a half-maximal effect (EC50) in assay [1] and in assay [1] (setting [3]) were 1.34 µM and 0.76 µM, respectively.
`COCCOC(=O)c1cc(NC(=O)c2ccccc2)ccc1Cl` [Compound 84, 2-Methoxyethyl 5-[benzoylamino)-2-chlorobenzoate]: the “Activity class … CEM-6” value in assay [1] was “MA (moderate activity (MA), that is, inhibition between approximately 20 and 50%)”.
For the molecule `CCCCCOC(=O)c1cc(NC(=O)C2=C(C)OCCS2)ccc1Cl` [Compound 15, Pentyl 2-chloro-5-[[(5,6-dihydro-2-methyl-1,4-oxathiin-3-yl)carbonyl]amino]benzoate], the EC50 in assay [2] is 0.61 µM; in assay [2] (setting [4]) it was 0.82 µM.
On to `CC(C)OC(=O)c1cc(NC(=S)OC(C)C)ccc1Cl` [Compound 32, 1-Methylethyl 2-chloro-5-[[(1-methylethoxy)thioxomethyl]amino]benzoate], for which the EC50 in assay [2] was 0.059 µM and 0.03 µM; in assay [2] (setting [4]), 0.035 µM.
With `CC1=C(C(=O)Nc2ccc(Cl)c(C(=O)OC(C)C)c2)SCCS1` [Compound 27, 1-Methylethyl 2-chloro-5[[(5,6-dihydro-3-methyl-1,4-dithiin-2-yl)carbonyl]amino]benzoate], the EC50 in assay [2] worked out at 0.81 µM; in assay [2] (setting [4]), 1.38 µM.
